The values that follow come from patent US8829014B2, “Thiazole and thiophene analogues, and their use in treating autoimmune diseases and cancers” (Board of Supervisors of Louisiana State University and …, priority 2006, dated 2014).

This test relates to carageenan-induced edema. As to the kind of experiment: Carrageenan-induced rat paw edema test (anti-inflammatory activity). It is filed as in vivo, Sprague-Dawley rats. To be noted: for inhibition in vivo at 50 mg/kg: Rattus norvegicus, po, 3 h. The protocol:
Sprague-Dawley rats, male and female, 150-250 g will be used in an edema test. Rats will be deprived of food but not water for 18 hours prior to the experiment. The test compounds will be administered with a blunt-tipped needle orally, 50 mg/kg, as a suspension in 0.1% sodium CMC (carboxymethylcellulose) vehicle. Alternatively, the test compounds will be injected intravenously, subcutaneously, or intraperitoneally. One hour later, 0.1 ml of a 1% carrageenan solution in saline will be injected in the sub-plantar region of the right hind paw of each rat. […] The reading will be repeated 3 hours later. The displacement readings give a measure of carageenan-induced edema. Any reduction in carageenan-induced edema with a test compound, as compared to saline control, is a measure of the anti-inflammatory activity of the test compound. The percentage protection at 50-mg/kg doses was calculated according to the following formula: % Protection=[(Control−Test)/Control]×100%.
Following treatment, the media from the VSMC and HUVEC incubations were removed, and the amount of lactate dehydrogenase (LDH) released into the medium was determined with a commercial kit and expressed as a % increase over vehicle-treated cells. HPT toxicity was determined by the ethidium homodimer (EthHD) uptake assay. […] The lead compounds were also tested in two pairs of cell lines from the skin or prostate, one tumorigenic and one non-tumorigenic, to test for differing toxicity or heightened sensitivity in the tumorigenic lines. The cells were treated for 48 h with vehicle (0.1% DMSO) or 10 μM of each drug candidate, and the viability of the cells was determined by the MTT assay, expressed as a % decrease in viability compared to vehicle-treated cells. The in vivo inflammation model measured the % inhibition of rat paw edema induced by carageenan injection.
A general note: In the carrageenan paw model, swelling and tenderness develop within hours.

[1] abbreviates: rat paw edema, 50 mg/kg, reading 3 hours after carrageenan, [(Control−Test)/Control]×100%, read-out: % Protection P.
[2] abbreviates: rat paw edema, 50 mg/kg, reading 3 hours after carrageenan, [(Control−Test)/Control]×100%.
Where [3] appears, read: carrageenan-induced rat paw edema, defined in Example 397, read-out: % Protection.

Read-outs that look alike come from different tables or passages of the source.

For `CC(=O)Nc1ccc(-c2cc(C(=O)c3ccc(C)cc3)sc2N2CCOCC2)cc1` [Example 67, N-{4-[5-(4-Methyl-benzoyl)-2-morpholin-4-yl-thiophene-3-yl]-phenyl}-acetamide], under setting [1], the inhibition in vivo at 50 mg/kg is 7.67%.

`Cc1cc(-c2sc(Nc3ccc(Cl)cc3)nc2NC(=O)Nc2ccc(F)cc2)ncc1OCC(F)(F)F` [Example 361, 1-{2-(4-Chloro-phenylamino)-5-[4-methyl-5-(2,2,2-trifluoro-ethoxy)-pyridin-2-yl]-thiazol-4-yl}-3-(4-fluoro-phenyl)-urea]: the inhibition in vivo at 50 mg/kg under setting [1] worked out at 77.9%.

With `COc1c(C)cnc(-c2sc(Nc3ccc(Cl)cc3)nc2N)c1C` [Example 341], the “% Protection P” value under setting [2] is given as 32%.

Take `O=C(c1ccccn1)c1sc(N2CCN(C(=O)c3ccco3)CC2)nc1-c1ccco1` [Example 380, {2-[4-(Furan-2-carbonyl)-piperazin-1-yl]-4-furan-2-yl-thiazol-5-yl}-pyridin-2-yl-methanone]: the inhibition in vivo at 50 mg/kg under setting [1] is 42%.

For the compound `CC(=O)Nc1ccc(-c2cc(C(=O)c3ccc(S(C)(=O)=O)cc3)sc2N2CCOCC2)cc1` [Example 72, N-{4-[5-(4-Methansulfonyl-benzoyl)-2-morpholin-4-yl-thiophene-3-yl]-phenyl}-acetamide], under setting [1], the inhibition in vivo at 50 mg/kg stood at 50%.

`O=C(Nc1ccc(F)cc1)Nc1nc(Nc2ccc(Cl)cc2)sc1C(=O)c1ccncc1` [Example 360, 1-[2-(4-Chloro-phenylamino)-5-(pyridine-4-carbonyl)-thiazol-4-yl]-3-(4-fluoro-phenyl)-urea]: the inhibition in vivo at 50 mg/kg under setting [1] was 69.8%.

Regarding `Nc1nc(Nc2ccc(Cl)cc2)sc1C(=O)c1ccncc1` [Example 339, [4-Amino-2-(4-chloro-phenylamino)-thiazol-5-yl]-pyridin-4-yl-methanone], the inhibition in vivo at 50 mg/kg under setting [1] was determined as 12%.

In the case of `COc1ccc(Nc2nc(N)c(C(=O)c3ccc(NC(C)=O)cc3)s2)cc1` [Example 348, (N-{4-[4-Amino-2-(4-methoxy-phenylamino)-thiazole-5-carbonyl]-phenyl}-acetamide)], the inhibition in vivo at 50 mg/kg under setting [1] was determined as 28.3%.

In the case of `Cc1ccccc1-n1c(-c2cc(-c3ccc(Cl)cc3)c(N3CCOCC3)s2)nc2ccccc2c1=O` [Example 279, 2-[4-(4-Chloro-phenyl)-5-morpholin-4-yl-thiophen-2-yl]-3-o-tolyl-3H-quinazolin-4-one], under setting [1], the inhibition in vivo at 50 mg/kg turned out to be 0%.

As to `CS(=O)(=O)c1ccc(C(=O)c2cc(-c3ccc(S(C)(=O)=O)cc3)c(N3CCOCC3)s2)cc1` [Example 60, (4-Methanesulfonyl-phenyl)-[4-(4-methansulfonyl-phenyl)5-morpholin-4-yl-thiophene-2-yl]-methanone], the inhibition in vivo at 50 mg/kg under setting [1] was 59.9%.

Regarding `CCOC(=O)Nc1nc(C)c(-c2nc3ccccc3c(=O)n2-c2ccc(C)cc2)s1` [Example 190, (4-Methyl-5-(4-oxo-3-p-tolyl-3,4-dihydro-quinazolin-2-yl)-thiazol-2-yl)-carbamic acid ethyl ester], the inhibition in vivo at 50 mg/kg under setting [3] came to 24%.

Turning to `O=C(c1cccnc1)c1cc(-c2ccncc2)c(N2CCOCC2)s1` [Example 110, (5-Morpholin-4-yl-4-pyridin-4-yl-thiophen-2-yl)-pyridin-3-yl-methanone], the inhibition in vivo at 50 mg/kg under setting [1] is -6.93%.

Consider `COc1ccc(C(=O)c2sc(N3CCN(C(=O)c4ccco4)CC3)nc2-c2ccccc2)cc1` [Example 382, {2-[4-(Furan-2-carbonyl)-piperazin-1-yl]-4-phenyl-thiazol-5-yl}-(4-methoxy-phenyl)-methanone], for which the inhibition in vivo at 50 mg/kg under setting [1] worked out at 46%.

On to “Diphenyl[carbonylbis(4-Benzyl-1,3-thiazole-5,2-diyl)]biscarbamate [Example 395]”, for which the “% Protection P” value under setting [2] turned out to be 66%.

For the compound `O=C(c1ccccc1)c1cc(-c2ccncc2)c(N2CCOCC2)s1` [Example 102, (5-Morpholin-4-yl-4-pyridin-4-yl-thiophene-2-yl)-phenyl-methanone], the inhibition in vivo at 50 mg/kg under setting [1] was 52%.

With `O=C(c1ccc(Cl)cc1)c1cc(-c2cccnc2)c(N2CCOCC2)s1` [Example 93, (4-Chloro-phenyl)-(5-morpholin-4-yl-4-pyridin-3-yl-thiophen-2-yl)-methanone], the inhibition in vivo at 50 mg/kg under setting [1] was found to be 0%.

With `CC(=O)Nc1ccc(-c2cc(C(=O)c3cc(-c4ccc(NC(C)=O)cc4)c(N4CCOCC4)s3)sc2N2CCOCC2)cc1` [Example 113, N-{4-{5-[4-(4-acetylamino-phenyl)-5-morpholin-4-yl-thiophene-2-carbonyl]-2-morpholin-4-yl-thiophene-3-yl}-phenyl)-acetamide], the inhibition in vivo at 50 mg/kg under setting [1] was 45.5%.

In the case of `O=C(Nc1ccc(F)cc1)Nc1nc(Nc2ccc(Cl)cc2)sc1C(=O)c1ccc(Cl)cc1` [Example 357, 1-[5-(4-Chloro-benzoyl)-2-(4-chloro-phenylamino)-thiazol-4-yl]-3-(4-fluoro-phenyl)-urea], the inhibition in vivo at 50 mg/kg under setting [1] stood at 24.3%.

`Nc1nc(Nc2ccc(Cl)cc2)sc1C(=O)c1ccc(Cl)cc1Cl` [Example 335, [4-Amino-2-(4-chloro-phenylamino)-thiazol-5-yl]-(2,4-dichloro-phenyl)-methanone]: under setting [1], the inhibition in vivo at 50 mg/kg worked out at 30.3%.

Consider `O=C(Nc1ccc(F)cc1)Nc1nc(Nc2ccc(Cl)cc2)sc1C(=O)c1cccnc1` [Example 359, 1-[2-(4-Chloro-phenylamino)-5-(pyridine-3-carbonyl)-thiazol-4-yl]-3-(4-fluoro-phenyl)-urea], for which the inhibition in vivo at 50 mg/kg under setting [1] stood at 64.2%.

On to `COc1ccccc1-n1c(-c2sc(Nc3ccc(Cl)cc3)nc2C)nc2ccccc2c1=O` [Example 203, 2-[2-(4-Chlorophenylamino)-4-methyl-thiazol-5-yl]-3-(2-methoxyphenyl)-3H-quinazoline-4-one], for which the inhibition in vivo at 50 mg/kg under setting [3] stood at 27%.

`CS(=O)(=O)c1ccc(C(=O)c2cc(-c3ccccc3)c(N3CCOCC3)s2)cc1` [Example 48, (4-Methylsulfonyl-phenyl)-(5-morpholin-4-yl-4-phenyl-thiophene-2-yl)-methanone]: the inhibition in vivo at 50 mg/kg under setting [1] turned out to be 30%.

For `CC(=O)Nc1ccc(C(=O)c2sc(Nc3ccccc3)nc2N)cc1` [Example 326, N-[4-(4-Amino-2-phenylamino-thiazole-5-carbonyl)-phenyl]-acetamide], the inhibition in vivo at 50 mg/kg under setting [1] was found to be 34%.

For `COc1ccc(C(=O)c2sc(Nc3ccc(Cl)cc3)nc2NC(=O)Nc2ccc(F)cc2)cc1` [Example 355, 1-[2-(4-Chloro-phenylamino)-5-(4-methoxy-benzoyl)-thiazol-4-yl]-3-(4-fluoro-phenyl)-urea], the inhibition in vivo at 50 mg/kg under setting [1] amounted to 62.6%.

On to `Cc1ccc(C(=O)c2cc(-c3ccc(S(C)(=O)=O)cc3)c(N3CCOCC3)s2)cc1` [Example 55, [4-(4-Methanesulfonyl-phenyl)-5-morpholin-4-yl-thiophene-2-yl]-p-tolyl-methanone], for which, under setting [1], the inhibition in vivo at 50 mg/kg was -13.5%.

On to `CS(=O)(=O)c1ccc(-c2cc(-c3nc4ccccc4c(=O)n3-c3ccccc3Cl)sc2N2CCOCC2)cc1` [Example 307, 2-[4-(4-Methanesulphonyl-phenyl)-5-morpholin-4-yl-thiophen-2-yl]-3-(2-chloro-phenyl)-3H-quinazolin-4-one], for which the inhibition in vivo at 50 mg/kg under setting [1] amounted to 31%.

Regarding `CSc1ccc(-c2cc(-c3nc4ccccc4c(=O)n3-c3cccc(C)c3)sc2N2CCOCC2)cc1` [Example 288, 2-[4-(4-Methylsulfanyl-phenyl)-5-morpholin-4-yl-thiophen-2-yl]-3-m-tolyl-3H-quinazolin-4-one], the inhibition in vivo at 50 mg/kg under setting [1] is 31%.

As to `COc1ccc(Nc2nc(N)c(C(=O)c3ccc(OC)cc3)s2)cc1` [Example 343, ([4-Amino-2-(4-methoxy-phenylamino)-thiazol-5-yl]-(4-methoxy-phenyl)-methanone)], under setting [1], the inhibition in vivo at 50 mg/kg worked out at 54%.

`COc1ccc(C(=O)c2cc(-c3ccc(NC(C)=O)cc3)c(N3CCOCC3)s2)cc1` [Example 68, N-{4-[5-(4-Methoxy-benzoyl)-2-morpholin-4-yl-thiophene-3-yl]-phenyl}-acetamide]: the inhibition in vivo at 50 mg/kg under setting [1] was 40%.

Consider `Cc1ccccc1-n1c(-c2sc(Nc3ccc(Cl)cc3)nc2C)nc2ccccc2c1=O` [Example 170, 2-[2-(4-Chlorophenylamino)-4-methyl-thiazol-5-yl]-3-o-tolyl-3H-quinazolin-4-one], for which the inhibition in vivo at 50 mg/kg under setting [3] is 45%.

As to “Bis-(2-methylamino-4-benzayl-thiazole-5-yl)-methanone [Example 132]”, the “% Protection P” value under setting [2] worked out at 47%.

As to `CC(=O)Nc1ccc(-c2cc(C(=O)c3ccc(Cl)cc3)sc2N2CCOCC2)cc1` [Example 69, N-{4-[5-(4-Chloro-benzoyl)-2-morpholin-4-yl-thiophene-3-yl]-phenyl}-acetamide], the inhibition in vivo at 50 mg/kg under setting [1] was -21.8%.

As to `COc1cccc(Nc2nc(-c3ccccc3)c(C(=O)c3sc(Nc4cccc(OC)c4)nc3-c3ccccc3)s2)c1` [Example 392, Bis-[2-(3-methoxy-phenylamino)-4-phenyl-thiazol-5-yl]-methanone], the inhibition in vivo at 50 mg/kg under setting [1] amounted to 62%.
